In paper PMC7413254 (Nature Communications, 2020):
Where two headings read alike, the source gives them in different places.

Experiments:
PfCRT = experiment: Potential co-substrates tested for influx of VF-6 via PfCRT into the oocyte; format: cell-based, Plasmodium falciparum; set-up: key: X: Compounds that have been tested as potential co-substrates but are not required for influx of VF-6 via PfCRT into the oocyte
PfCRT^Dd2 [1] = biological target: T1, PfCRT^Dd2 (Plasmodium falciparum, UniProt Q9N623, A220S/I356T/K76T/M74I/N326S/N75E/Q271E/R371I); experiment: [3H]CQ uptake into Xenopus oocytes, cis-inhibition by unlabelled solute; format: cell-based; details: PfCRTDd2 oocytes, background [3H]CQ accumulation subtracted, normalised to oocyte type control
In short: (§1)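 ND96, pH 5.5, 1.5 h, 27.5 °C; uptake direction acidic outside → oocyte cytosol, mimicking efflux from digestive vacuole. Ice-cold wash stop, 10% SDS lysis, scintillation counting. Ten oocytes/treatment, ≥4 independent experiments.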

PfCRT^Ecu1110 [2] = biological target: T2, PfCRT^Ecu1110 (Plasmodium falciparum, UniProt Q9N623, A220S/I356L/K76T/N326D); experiment: as above; format: cell-based; details: for PfCRT-mediated [3H]CQ transport, cis-inhibition (% PfCRTEcu1110 control): PfCRTEcu1110 oocytes, background [3H]CQ accumulation subtracted, normalised to oocyte type control; for [3H]CQ transport (% PfCRTEcu1110 control), cis-inhibition, PfCRTEcu1110: PfCRT-mediated component (background subtracted), sheet title says normalised to PfCRTDd2 control, mean ± SEM, SEM
In short: as §1

PfCRT^Dd2 [3] = biological target: T1, PfCRT^Dd2; experiment: cell-based; format: cell-based; details: for PfCRT-mediated [3H]CQ transport, trans-stimulation (% PfCRTDd2 control): PfCRTDd2 oocytes, normalised to oocyte type control; for [3H]CQ transport (% PfCRTDd2 control), trans-stimulation, PfCRTDd2: PfCRT-mediated component (background subtracted), mean ± SEM, SEM
In short: (§2)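 Oocytes (ten per treatment, ≥4 independent frogs/days) were preloaded by injecting VF-6 in 25 nL ND96 at pH 5.0, 5.5, 6.0 or 7.0, or Na^+-free choline buffer, then uptake run 1.5 h, 27.5 °C, ND96 pH 5.5 by default. Internal concentrations assumed ~400 nL oocyte volume.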

PfCRT^Ecu1110 [4] = biological target: T2, PfCRT^Ecu1110; experiment: cell-based; format: cell-based; details: for PfCRT-mediated [3H]CQ transport, trans-stimulation (% PfCRTEcu1110 control): PfCRTEcu1110 oocytes, normalised to oocyte type control; for [3H]CQ transport (% PfCRTDd2 control), trans-stimulation, PfCRTEcu1110: PfCRT-mediated component (background subtracted), sheet title says normalised to PfCRTDd2 control, mean ± SEM, SEM
In short: as §2

PfCRT^3D7 [5] = biological target: T3, PfCRT^3D7 (Plasmodium falciparum, UniProt Q8IBZ9); experiment: cell-based; format: cell-based; details: PfCRT3D7 oocytes, normalised to oocyte type control
In short: as §2

PfCRT^Dd2 [6] = biological target: T1, PfCRT^Dd2; experiment: cell-based; details: mean ± SEM, n = 5, SEM
Protocol: (§3) The characterisation of [^3H]VF-6 transport via 23 different field and laboratory-derived isoforms of PfCRT was undertaken with oocytes two days post-cRNA-injection (Figs. 3a–j, 4; Supplementary Fig. 2). The oocytes were injected with 25 nL of ND96 buffer (pH 5.5) supplemented with [^3H]VF-6 and unlabelled VF-6 to achieve estimated intracellular concentrations of 1.4 and 200 μM, respectively. Ten oocytes that had resealed at the injection site were transferred to a 5 mL polystyrene round bottom tube (In Vitro Technologies) and washed with 3.5 mL of ND96 buffer before being transferred to separate wells of a white 96-well plate (PerkinElmer). This treatment served to establish the amount of radioactivity within the oocytes immediately prior to the commencement of the transport assay. Another 10 resealed oocytes were transferred to a 5 mL tube and washed with 3.5 mL of ND96 buffer. […] The assay was terminated by removing the reaction buffer with a pipette and washing the oocytes twice with 3.5 mL of ice-cold ND96 buffer. Each oocyte was transferred to a separate well of a white 96-well plate. The oocytes were lysed by the addition of 20 μL of 10% (w/v) SDS and overnight incubation at room temperature. The lysed oocyte was then combined with 150 μL of MicroScint-40 microscintillant (PerkinElmer), the plate covered with a TopSeal-A (PerkinElmer), and the radioactivity measured with a MicroBeta^2 microplate liquid scintillation analyser (PerkinElmer). VF-6 transport was calculated by subtracting the amount of radioactivity (measured in counts per minute) present within the oocytes at the end of the incubation from that measured in the oocytes sampled immediately before the commencement of the assay. The pH-dependence of transport (Fig. 3c) was determined by injecting the oocytes with [^3H]VF-6 suspended in 25 nL ND96 buffer adjusted to pH 5.0, 5.5, 6.0 or 7.0, which corresponded to the injection of 2.5–250 fmol of H^+. The dependence of [^3H]VF-6 transport on Na^+ or Cl^− was examined by injecting the oocytes with [^3H]VF-6 suspended in the control ND96 buffer (pH 5.5) or a version of this buffer that lacked either Na^+ or Cl^− (Supplementary Fig. 2). […] The dependence of peptide transport on Ca^2+ was determined by injecting the oocytes with [^3H]VF-6 suspended in ND96 buffers that contained different concentrations of Ca^2+ (0–5 mM; Supplementary Fig. 2). […] The dependence of PfCRT-mediated transport on the membrane potential was examined by using (1) Na^+ ionophore III in conjunction with the Na^+ gradients listed in Supplementary Data 7 and (2) Cl^− ionophore III in conjunction with the Cl^− gradients listed in Supplementary Data 7 to clamp the membrane potential of the oocyte from −80 to +80 mV. […] The kinetic parameters for VF-6 transport via different isoforms of PfCRT (Figs. 3e and 4a) were determined in SigmaPlot Windows Version 11.0 by a least-squares fit of the Michaelis–Menten equation to the data.
(§4) A subset of assays measured the ability of solutes known to interact with PfCRT to either cis-inhibit, trans-inhibit or trans-stimulate [^3H]VF-6 transport. These experiments involved adding these solutes to either the cis- or trans-side of the membrane relative to [^3H]VF-6. […] At least five independent experiments were performed (on different days and using oocytes from different frogs), and within each experiment measurements were made from ten oocytes per treatment.

PfCRT^Ecu1110 [7] = biological target: T2, PfCRT^Ecu1110; experiment: cell-based; details: mean ± SEM, n = 5, SEM
Protocol: as §3, §4

PfCRT^3D7 [8] = biological target: T3, PfCRT^3D7; experiment: cell-based; details: mean ± SEM, n = 5, SEM
Protocol: as §3, §4

[9] = [test solute]i = 5 mM (intracellular)
[10] = [test solute]i = 45 mM (intracellular; 30 mM for some solutes due to solubility)
[11] = [test solute]i = 5 mM (injected)
[12] = [test solute]i = 45 mM (30 mM for some solutes due to solubility)

T3 sequence (Q8IBZ9 59-398): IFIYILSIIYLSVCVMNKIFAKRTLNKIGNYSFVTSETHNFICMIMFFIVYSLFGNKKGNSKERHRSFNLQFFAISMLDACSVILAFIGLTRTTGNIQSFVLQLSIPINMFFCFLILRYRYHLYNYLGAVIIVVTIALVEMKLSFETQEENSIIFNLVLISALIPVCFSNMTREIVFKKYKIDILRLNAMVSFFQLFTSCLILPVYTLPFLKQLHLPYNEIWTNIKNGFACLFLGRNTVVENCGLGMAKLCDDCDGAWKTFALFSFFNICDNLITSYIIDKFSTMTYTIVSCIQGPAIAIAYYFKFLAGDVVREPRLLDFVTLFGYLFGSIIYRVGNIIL
T2 sequence (Q9N623 whole entry A220S/I356L/K76T/N326D): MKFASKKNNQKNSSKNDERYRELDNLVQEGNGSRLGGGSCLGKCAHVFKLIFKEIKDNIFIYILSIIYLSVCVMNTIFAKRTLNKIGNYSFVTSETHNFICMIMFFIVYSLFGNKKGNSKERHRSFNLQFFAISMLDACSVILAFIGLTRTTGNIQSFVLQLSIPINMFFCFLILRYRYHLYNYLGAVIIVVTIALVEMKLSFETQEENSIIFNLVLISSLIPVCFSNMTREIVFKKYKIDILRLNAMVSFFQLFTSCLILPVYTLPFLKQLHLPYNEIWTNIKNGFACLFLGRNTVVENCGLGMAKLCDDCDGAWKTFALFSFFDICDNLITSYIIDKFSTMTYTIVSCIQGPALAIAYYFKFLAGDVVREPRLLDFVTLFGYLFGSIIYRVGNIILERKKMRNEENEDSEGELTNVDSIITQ
T1 sequence (Q9N623 whole entry A220S/I356T/K76T/M74I/N326S/N75E/Q271E/R371I): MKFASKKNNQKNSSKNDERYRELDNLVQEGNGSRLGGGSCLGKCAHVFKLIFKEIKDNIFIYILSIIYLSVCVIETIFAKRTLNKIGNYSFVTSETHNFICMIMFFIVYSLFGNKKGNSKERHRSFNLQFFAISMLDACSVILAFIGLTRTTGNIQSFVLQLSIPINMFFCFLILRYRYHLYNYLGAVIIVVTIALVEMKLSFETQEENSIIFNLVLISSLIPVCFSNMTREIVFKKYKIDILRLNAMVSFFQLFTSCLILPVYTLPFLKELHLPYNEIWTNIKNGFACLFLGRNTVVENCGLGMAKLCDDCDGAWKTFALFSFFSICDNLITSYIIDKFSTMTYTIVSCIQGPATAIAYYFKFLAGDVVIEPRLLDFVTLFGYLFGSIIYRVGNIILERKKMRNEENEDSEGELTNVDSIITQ

| Molecule | Tested as potential co-substrate but not required for influx of VF-6 via PfCRT into the oocyte (PfCRT) | PfCRT-mediated [3H]CQ transport, cis-inhibition (% PfCRTDd2 control) (PfCRT^Dd2 [1]; [test solute] = 0.5 mM) | PfCRT-mediated [3H]CQ transport, cis-inhibition (% PfCRTDd2 control) (PfCRT^Dd2 [1]; [test solute] = 1 mM) | PfCRT-mediated [3H]CQ transport, cis-inhibition (% PfCRTDd2 control) (PfCRT^Dd2 [1]; [test solute] = 2 mM) | PfCRT-mediated [3H]CQ transport, cis-inhibition (% PfCRTEcu1110 control) (PfCRT^Ecu1110 [2]; [test solute] = 0.5 mM) | PfCRT-mediated [3H]CQ transport, cis-inhibition (% PfCRTEcu1110 control) (PfCRT^Ecu1110 [2]; [test solute] = 1 mM) | PfCRT-mediated [3H]CQ transport, cis-inhibition (% PfCRTEcu1110 control) (PfCRT^Ecu1110 [2]; [test solute] = 2 mM) | [3H]CQ transport (% PfCRTEcu1110 control), cis-inhibition, PfCRTEcu1110 (PfCRT^Ecu1110 [2]; [test solute] = 2 mM) | PfCRT-mediated [3H]CQ transport, trans-stimulation (% PfCRTDd2 control) (PfCRT^Dd2 [3]; [9]) | PfCRT-mediated [3H]CQ transport, trans-stimulation (% PfCRTDd2 control) (PfCRT^Dd2 [3]; [10]) | [3H]CQ transport (% PfCRTDd2 control), trans-stimulation, PfCRTDd2 (PfCRT^Dd2 [3]; [11]) | [3H]CQ transport (% PfCRTDd2 control), trans-stimulation, PfCRTDd2 (PfCRT^Dd2 [3]; [12]) | PfCRT-mediated [3H]CQ transport, trans-stimulation (% PfCRTEcu1110 control) (PfCRT^Ecu1110 [4]; [9]) | PfCRT-mediated [3H]CQ transport, trans-stimulation (% PfCRTEcu1110 control) (PfCRT^Ecu1110 [4]; [10]) | [3H]CQ transport (% PfCRTDd2 control), trans-stimulation, PfCRTEcu1110 (PfCRT^Ecu1110 [4]; [11]) | [3H]CQ transport (% PfCRTDd2 control), trans-stimulation, PfCRTEcu1110 (PfCRT^Ecu1110 [4]; [12]) | PfCRT-mediated [3H]CQ transport, trans-stimulation (% PfCRT3D7 control) (PfCRT^3D7 [5]; [9]) | PfCRT-mediated [3H]CQ transport, trans-stimulation (% PfCRT3D7 control) (PfCRT^3D7 [5]; [10]) | further results |
| --- | --- | --- | --- | --- | --- | --- | --- | --- | --- | --- | --- | --- | --- | --- | --- | --- | --- | --- | --- |
| DPVNF [DF-5] | X | 38 ± 3.1 % PfCRTDd2 control | 27 ± 0.9 % PfCRTDd2 control | 15 ± 0.5 % PfCRTDd2 control | 40 ± 2.1 % PfCRTEcu1110 control | 32 ± 1.6 % PfCRTEcu1110 control | 21 ± 1.0 % PfCRTEcu1110 control | 7.0 ± 0.1 % PfCRTEcu1110 control | 101 ± 3.5 % PfCRTDd2 control | 113 ± 1.2 % PfCRTDd2 control | 101 ± 3.5 % PfCRTDd2 control | 113 ± 1.2 % PfCRTDd2 control | 120 ± 2.4 % PfCRTEcu1110 control | 128 ± 2.9 % PfCRTEcu1110 control | 36 ± 1.3 % PfCRTEcu1110 control | 39 ± 1.8 % PfCRTEcu1110 control | 128 ± 3.1 % PfCRT3D7 control | 158 ± 4.2 % PfCRT3D7 control | – |
| VDPVN [VN-5] | X | 42 ± 2.7 % PfCRTDd2 control | 30 ± 3.0 % PfCRTDd2 control | 19 ± 0.3 % PfCRTDd2 control | 52 ± 1.8 % PfCRTEcu1110 control | 38 ± 2.6 % PfCRTEcu1110 control | 27 ± 0.5 % PfCRTEcu1110 control | 9.0 ± 0.2 % PfCRTEcu1110 control | 101 ± 3.5 % PfCRTDd2 control | 112 ± 1.4 % PfCRTDd2 control | 101 ± 3.5 % PfCRTDd2 control | 112 ± 1.4 % PfCRTDd2 control | 128 ± 3.6 % PfCRTEcu1110 control | 136 ± 3.5 % PfCRTEcu1110 control | 39 ± 1.5 % PfCRTEcu1110 control | 41 ± 1.9 % PfCRTEcu1110 control | 131 ± 4.6 % PfCRT3D7 control | 181 ± 5.7 % PfCRT3D7 control | [3H]CQ transport (% PfCRTEcu1110 control), cis-inhibition, PfCRTEcu1110 (PfCRT^Ecu1110 [2]; [test solute] = 0.5 mM): 16 ± 0.4 % PfCRTEcu1110 control |
| CN(C)CCC(c1ccc(Cl)cc1)c1ccccn1 (stereo not shown) [CP, chlorpheniramine, reference compound] | – | – | – | – | – | – | – | – | – | – | – | – | – | – | – | – | – | – | IC50 (PfCRT^Dd2 [6]; Cis-inhibition IC50 of [3H]VF-6 transport, PfCRTDd2, drug on same side as [3H]VF-6): 5 ± 1.1 µM; IC50 (PfCRT^Dd2 [6]; Trans-inhibition IC50 of [3H]VF-6 transport, PfCRTDd2, drug on opposite side to [3H]VF-6): 8.8 ± 0.3 µM; IC50 (PfCRT^Ecu1110 [7]; Cis-inhibition IC50 of [3H]VF-6 transport, PfCRTEcu1110, drug on same side as [3H]VF-6): 6.2 ± 0.3 µM; IC50 (PfCRT^Ecu1110 [7]; Trans-inhibition IC50 of [3H]VF-6 transport, PfCRTEcu1110, drug on opposite side to [3H]VF-6): 7.2 ± 0.2 µM; IC50 (PfCRT^3D7 [8]; drug on opposite side to [3H]VF-6, read-out: Trans-inhibition IC50 of [3H]VF-6 transport, PfCRT3D7): 12 ± 0.7 µM; IC50 (PfCRT^3D7 [8]; drug on same side as [3H]VF-6, read-out: Cis-inhibition IC50 of [3H]VF-6 transport, PfCRT3D7): 9.8 ± 0.5 µM |
